In patent publication US9884874B2, “Bromodomain-inhibiting compounds and pharmaceutical composition comprising same for preventing or treating a cancer” (KAINOS MEDICINE, INC., priority 2014, dated 2018):

Columns and labels:
[1] = Human liver microsomal stability/clearance; assay type: in vitro ADME; conditions: human liver microsomes; first value of Human/Mouse cell; read-out: Liver microsomal clearance (Human)
Method: Human and mouse liver microsomal clearance assays were carried out in CROWN Biosciences (Taicang, China). The human liver microsomes (Cat No. X008067, Lot No. KQB) and mouse liver microsomes (Cat No. M1000, Lot No. 1210302) were purchased from Celsis and Xenotech, respectively.
5 μL of test compound stock solution was diluted with 495 μL of 1:1 Methanol/Water (final concentration: 100 μM, 50% MeOH) and combined with 534 μL of the respective liver microsome solution (final concentration: 1.111 μM, 0.555% MeOH). The final concentration of the liver microsome solution was 0.7 mg protein/mL.
Incubations of the liver microsome solutions were performed in a 96 well plate at 37° C. 90 μL of the liver microsome solutions were added to Blank, and 90 μL of working solution of the test compound was added to all plates except the Blank.
All plates thus obtained were warmed in water bath at 37° C. for 10 min, and 10 μL of NADPH co-factor solution comprising 42 mg of β-nicotinamide adenine dinucleotide phosphate (Sigma Cat. No. N0505 Lot 020M7009V), 84 mg of isocitric acid (Sigma Cat. No. 11252 Lot 119K1099) and 0.478 mL of isocitric dehydrogenase (Sigma Cat. No. 12002 Lot 086K7055, 15 units/mg protein, warmed in water bath at 37° C. for 5 min was added to the plates. The resulting plates were incubated at 37° C. in the following order: T60 (The test compounds were incubated with the liver microsomal solution and NADPH for 60 min at 37° C.), T30 (such as for 30 min.), and T10 (such as for 10 min.). 300 μL of a cold (4° C.) stop solution (acetonitrile (ACN) including 500 nM of tolbutamide as internal standard) and 10 μL of NADPH co-factor solution to starting plate (T0: 100% of the parent compound without any reaction) were added to the plates. The reaction was stopped by adding 300 μL of the cold (4° C.) stop solution to the other plates in the following order: T10 first, then T30 and T60.
The samples were centrifuged at 4,000 rpm for 20 min and transferred to Bioanalytical Services for liquid chromatography-mass spectrometry (LC-MS)/MS (Waters UPLC/API 4000, 10 μL injection) analysis.

[2] = test system: A375 (malignant melanoma); experiment: Anti-proliferative activity, A375; assay type: cell-based; conditions: Homo sapiens, A-375, read-out: Cell proliferation, IC50
MDA-MB-435 (breast) = experiment: Anti-proliferative activity, MDA-MB-435; assay type: cell-based; conditions: Homo sapiens, read-out: Cell proliferation, IC50
[3] = Animal pharmacokinetics in ICR mice; assay type: in vivo; conditions: mouse; for AUC / MRT / clearance / bioavailability: ICR, in vivo
Method: Pharmacokinetics of the compounds of 1, 2, 7, 8 11 and 15 were evaluated in ICR mice (6˜8 weeks, 20˜25 g) following intravenous (IV) administration at 10 mg/kg and per oral (PO) administration at 10 mg/kg dose level, respectively. Especially, the additional dose level of Compound 1 was 30 mg/kg.
(§1) For serum compound analysis, blood samples were collected by cardiac puncture over 24 hr time course. 20 μL of spiked plasma was added into a 96-well plate, adding ten volumes of internal standard (IS) in acetonitrile (ACN) to the obtained precipitated protein mixed thoroughly, centrifuged at 4,000 rpm for 10 min. 150 μL of supernatant thus obtained was transferred to another pre-labeled 96-well plate, mixed with 150 μL of water. 5 μL or 10 μL of the mixture was injected into the LC-MS system under the following conditions:
(§2) Column: API-4000+Waters UPLC (TCLM08);
(§3) Lower limit of quantification (LLOQ) was at 1 ng/mL. Pharmacokinetic parameters of half-life (T1/2), clearance (CL), maximum plasma concentration (Cmax), mean residence time (MRT) and bioavailability (F %), plasma exposure (AUC) of the compound were calculated using Phoenix WinNonlin 6.3 (non-compartmental model).

[4] = Pharmacokinetics in beagle dogs; assay type: in vivo; conditions: plasma, dog, 3 mg/kg
Method: as §1, §2, §3
Further, pharmacokinetics of Compound 1 in dog was evaluated in beagle dogs following IV administration at 3 mg/kg and PO administration at 3 mg/kg dose level, respectively.

[5] = test system: MV4-11 human leukemia xenograft; experiment: Tumor growth inhibition in MV4-11 human leukemia mouse xenograft; assay type: in vivo, NOD/SCID mice; conditions: PO, 5 d ON/2 d Off × 2 (14 days)
Method: Tumor growth inhibition (TGI) activities of compound 1 were tested in MV4-11 human leukemia mouse xenograft.
(§4) A total of 48 NOD/SCID female mice of 6-8 weeks age and weighing approximately 18 to 22 g, purchased from HFK (Beijing HFK Bio-Technology Co. Ltd.), were used for tumor inoculation.
The MV4-11 cell line was maintained in vitro in IMDM (Iscove's modified Dulbecco's media) supplemented with 10% fetal bovine serum at 37° C. in an atmosphere of 5% CO2 in air. The tumor cells were routinely subcultured twice weekly by trypsin-EDTA treatment. The cells growing in an exponential growth phase were harvested and counted for tumor inoculation. The treatments were started when the tumor size reached approximately 150-200 mm^3.
Each mouse was inoculated subcutaneously at the right flank with MV4-11 tumor cells (1×10^7 cells) in mixture of 100 ul PBS and 100 ul of Matrigel™ for tumor development. A total of […] mice were used for each group. The amounts of treated compounds are represented in milligram (mg) of compound per kilogram (kg) of animal body weight (mg/kg, mpk). Administration route of the test compound was PO (oral) injection. […]
Tumor sizes were measured using a caliper, once every 4 days, and the tumor volume was expressed in mm^3 using Equation 1: V=0.5a×b^2 [Equation 1] […]

[6] = Body weight change in MV4-11 xenograft mice; assay type: in vivo, NOD/SCID mice; conditions: 50 and 100 mpk, PO
Method: as §4
Each mouse was inoculated subcutaneously at the right flank with MV4-11 tumor cells (1×10^7 cells) in mixture of 100 ul PBS and 100 ul of Matrigel™ for tumor development. A total of […] mice were used for each group. The amounts of treated compounds are represented in milligram (mg) of compound per kilogram (kg) of animal body weight (mg/kg, mpk). Administration route of the test compound was PO (oral) injection. Three groups, i.e., vehicle group (Control group), 50 mpk group (treatment at 50 mpk of compound 1 through PO injection) and 100 mpk group (treatment at 100 mpk of compound 1 through PO injection) of mice were used. The overall administration schedule was 2 cycles of treatment for 5 days (5 d ON), followed by 2 days of non-treatment (2 d OFF).

COc1ccc2c(c1)C(c1ccc(Cl)cc1)=N[C@@H](COS(C)(=O)=O)c1nnc(C)n1-2 [Compound 1, (R)-(6-(4-chlorophenyl)-8-methoxy-1-methyl-4H-benzo[f]-[1,2,4]triazolo[4,3-a][1,4]diazepin-4-yl)methyl methanesulfonate]
microsomal CLint at 1 µM [1]: 2.3 µL/min/mg | IC50 [2]: 5.57 µM | IC50 (MDA-MB-435 (breast)): 5.99 µM | AUC ([3]; IV, 10 mg/kg): 74 µM·h | MRT ([3]; IV, 10 mg/kg): 4.7 h | clearance ([3]; IV, 10 mg/kg): 5.1 mL/min/kg | AUC ([3]; IV, 30 mg/kg): 302 µM·h | clearance ([3]; IV, 30 mg/kg): 3.7 mL/min/kg | AUC ([3]; PO, 10 mg/kg): 76 µM·h | MRT ([3]; PO, 10 mg/kg): 6.2 h | bioavailability ([3]; PO, 10 mg/kg): 103% | AUC ([3]; PO, 30 mg/kg): 260 µM·h | bioavailability ([3]; PO, 30 mg/kg): 86.2% | dose linearity in plasma exposure (in words) ([3]; FIG. 1, 10 and 30 mg/kg): good dose linearity in plasma exposure | AUC ([4]; IV): 19.7 µM·h | MRT ([4]; IV): 4.9 h | clearance ([4]; IV): 5.6 mL/min/kg | AUC ([4]; PO): 17.3 µM·h | bioavailability ([4]; PO): 92.3% | % TGI ([5]; 50 mpk): 77% | % TGI ([5]; 100 mpk): 84% | BW change (%) (in words) [6]: very low
